The source made the active and inactive calls. No cut-off for these calls is given here.
What was measured:
WEHI-164 = test: Antiproliferative activity against mouse WEHI164 cells […] after 72 hrs by MTT assay; format: functional, cell-based
HEK293 = test: Antiproliferative activity against HEK293 cells […] after 72 hrs by MTT assay; format: cell-based; details: human, hek293, 72 h
J774 = test: Antiproliferative activity against mouse J774 cells […] after 72 hrs by MTT assay; format: functional, cell-based

SMILES | Activity (WEHI-164) | Activity (HEK293) | Activity (J774)
C[C@@H]1[C@H]2C3=CC[C@@H]4[C@@]5(C)C[C@@H](O)[C@H](O[C@@H]6OC[C@H](O)[C@H](O[C@@H]7OC[C@@H](O)[C@H](O)[C@H]7O)[C@H]6O)[C@@](C)(CO)[C@@H]5CC[C@@]4(C)[C@]3(C)CC[C@@]2(C(=O)O[C@@H]2O[C@H](CO[C@@H]3O[C@H](CO)[C@@H](O)[C@H](O)[C@H]3O)[C@@H](O)[C@H](O)[C@H]2O)CC[C@]1(C)O | inactive | Not Active | inactive
C[C@@H]1[C@H]2C3=CC[C@@H]4[C@@]5(C)C[C@@H](O)[C@H](O[C@@H]6OC[C@H](O)[C@H](O)[C@H]6O)[C@@](C)(CO)[C@@H]5CC[C@@]4(C)[C@]3(C)CC[C@@]2(C(=O)O[C@@H]2O[C@H](CO)[C@@H](O)[C@H](O)[C@H]2O)CC[C@]1(C)O | inactive | Not Active | inactive
C[C@@H]1O[C@@H](OC[C@H]2O[C@@H](OC(=O)[C@]34CC[C@](C)(O)[C@H](C)[C@H]3C3=CC[C@@H]5[C@@]6(C)CC[C@H](O[C@@H]7OC[C@H](O)[C@H](O[C@@H]8OC[C@@H](O)[C@H](O)[C@H]8O)[C@H]7O)[C@@](C)(CO)[C@@H]6CC[C@@]5(C)[C@]3(C)CC4)[C@H](O)[C@@H](O)[C@@H]2O)[C@H](O)[C@H](O)[C@H]1O | inactive | Not Active | inactive
C[C@@H]1[C@H]2C3=CC[C@@H]4[C@@]5(C)C[C@@H](O)[C@H](O[C@@H]6OC[C@H](O)[C@H](O[C@@H]7OC[C@@H](O)[C@H](O)[C@H]7O)[C@H]6O)[C@@](C)(CO)[C@@H]5CC[C@@]4(C)[C@]3(C)CC[C@@]2(C(=O)O[C@@H]2O[C@H](CO)[C@@H](O)[C@H](O)[C@H]2O)CC[C@]1(C)O | inactive | Not Active | inactive
